The text below walks through data of patent US11180516B2, “Phosphine transition metal complex, method for producing same, and anticancer agent” (Nippon Chemical Industrial Co., Ltd., priority 2018, dated 2021).

Series [1] relates to NCI-N87 (human gastric cancer cells). The series is described as follows: Anticancer activity, WST-8 viable cell assay, NCI-N87. It counts as cell-based. The note with it: 48 hours culture, mean of three experiments, read-out: IC50 (50% cell growth inhibitory concentration). As for the experimental part:
(§1) As a control, cisplatin was tested in the same way.
(§2) A549 (human lung cancer cells), NCI-H460 (human lung cancer cells), MKN45 (human gastric cancer cells), NCI-N87 (human gastric cancer cells), A2780 (human ovarian cancer cells), A2780cis (human ovarian cancer cells, cisplatin-resistant cells) were used as cancer cells, and cultured in Roswell Park Memorial Institute medium (RPMI1640) supplemented with 10 volume % fetal bovine serum and 100 Units/mL penicillin and 100 μg/mL streptomycin under 5 volume % carbon dioxide atmosphere by wet incubation at 37° C.
(§3) Cells were washed with phosphate buffered saline (PBS), the cell count was calculated, and then 5×10^4 cells/ml suspension was prepared using the same medium. The suspension was added to a sterile 96-well microplate at a density of 2500 cells/well.
(§4) Thereafter, viable cell counts were evaluated by WST-8 assay. In other words, a solution of water-soluble tetrazolium salt WST-8 was added, and then the cells were cultured in an incubator for 1 hour. Absorbance at 450 nm of water-soluble formazan generated by enzymatic activity of mitochondria in cells was measured with a microplate reader (Spectra Max PLUS; Molecular Devices). This was evaluated as viable cell counts, and 50% cell growth inhibitory concentration (IC50) was calculated. It should be noted that the mean of the values of three experiments performed in the same way was adopted for the calculation of IC50 value.

Series [2] concerns NCI-H460 (human lung cancer cells). In words: Anticancer activity, WST-8 viable cell assay, NCI-H460. The note with it: 48 hours culture, mean of three experiments, read-out: IC50 (50% cell growth inhibitory concentration). It counts as cell-based. As for the experimental part:
as §1, §2, §3, §4
Background: Formazan colour is commonly taken as a measure of viable cells.

For series [3], the system named is A2780cis (human ovarian cancer cells, cisplatin-resistant cells). In words: Anticancer activity, WST-8 viable cell assay, A2780cis. It counts as cell-based. To be noted: 48 hours culture, mean of three experiments, read-out: IC50 (50% cell growth inhibitory concentration). As for the experimental part:
as §1, §2, §3, §4

Series [4] has as its system A2780 (human ovarian cancer cells). The series is described as follows: Anticancer activity, WST-8 viable cell assay, A2780. It is filed as cell-based. The note with it: 48 hours culture, mean of three experiments, read-out: IC50 (50% cell growth inhibitory concentration). As for the experimental part:
as §1, §2, §3, §4

For series [5], the system named is MKN45 (human gastric cancer cells). The series is described as follows: Anticancer activity, WST-8 viable cell assay, MKN45. It is filed as cell-based. To be noted: 48 hours culture, mean of three experiments, read-out: IC50 (50% cell growth inhibitory concentration). As for the experimental part:
as §1, §2, §3, §4

Series [6] relates to A549 (human lung cancer cells). The series is described as follows: Anticancer activity, WST-8 viable cell assay, A549. It is filed as cell-based. To be noted: 48 hours culture, mean of three experiments, read-out: IC50 (50% cell growth inhibitory concentration). As for the experimental part: as §1, §2, §3, §4
The nature of series [7]: Solubility test in aqueous surfactant solution (HPLC). The note with it: 150 μL surfactant (Tween 80:propylene glycol 2:1) + 850 μL 5% by mass aqueous glucose solution.
Experimental: The solubility was determined by the following HPLC analysis.
For the HPLC analyzer, Prominence HPLC system (LC-20AD, Shimadzu Corporation) was used. For the detector, UV detector SPD-20A (Shimadzu Corporation, detection wavelength 249 nm) was used, and for the column, XR-ODS (3 mm i.d.×100 mm, particle diameter 2.2 μm) manufactured by Shimadzu Corporation was used. The mobile phase was methanol:water:TFA=90:10:0.05 (v/v), the column temperature was 40° C., and the flow rate was 0.5 mL/min.
Each of the weighed samples was placed in 150 μL of surfactants, and the mixture was stirred sufficiently. Then, 850 μL of 5% by mass aqueous glucose solution was added, and the mixture was further stirred at room temperature (25° C.). This solution was passed through a 0.2 μm membrane filter, and the filtrate was diluted 50-fold by volume with methanol:water (9:1) to obtain a preparation solution for HPLC analysis.
The prepared samples were transferred to vials, and set in an autosampler. The analysis was performed by injecting each sample by 1 μL.
Based on the relationship between the weight of the weighed sample and the area of the peak in the obtained chromatogram, the solubility of the phosphine transition metal complex was evaluated.

With `N.N.[Cl][Pt][Cl]` [Cisplatin, cisplatin, reference compound], the IC50 in series [1] came out at 42 µM; in series [2] it was 3.3 µM; in series [3], 28 µM; in series [4], 2.8 µM; in series [5], 5.2 µM; in series [6] it was 6 µM.
Turning to `CP(c1nc2ccccc2nc1P(C)C(C)(C)C)C(C)(C)C.CP(c1nc2ccccc2nc1P(C)C(C)(C)C)C(C)(C)C.[Au+].[Cl-]` (stereo not shown) [Comparative Example 1, bis(2,3-bis(tert-butylmethylphosphino)quinoxaline)gold(I) chloride], the “Solubility (25° C.)” value in series [7] came to 25.5 mg/mL.
As to `CP(c1ccccc1P(C)C(C)(C)C)C(C)(C)C.CP(c1ccccc1P(C)C(C)(C)C)C(C)(C)C.[Au+].[Cl-]` [Example 2, bis[(S,S)-1,2-bis(t-butylmethylphosphino)benzene]gold(I) chloride], the IC50 in series [1] turned out to be 2.1 µM; in series [2], 0.69 µM; in series [3], 0.56 µM; in series [4], 1.1 µM; in series [5], 0.53 µM; in series [6], 0.58 µM.
Turning to “bis[(R,R)-1,2-bis(t-butylmethylphosphino)benzene]gold(I) chloride [Example 1]”, the IC50 is 1.4 µM in series [1]; 0.25 µM in series [2]; 0.095 µM in series [3]; 0.28 µM in series [4]; 0.25 µM in series [5]; 0.066 µM in series [6].
